Measured values published in ChEMBL document CHEMBL1201862, “PubChem BioAssay data set” (2004).
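Five concentrations, 48 hours, 96-well plates. GI50 is the concentration that inhibits growth by half.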 Active and inactive are the calls of the source. No stated cut-off is given here; in the data, active = GI50 up to about 1.1 µM and inactive = higher.

Legend:
Experiment in all cases: growth of human tumour cells (NCI), 48 h
[1] = test system: A498
[2] = test system: A549
[3] = test system: HL-60
[4] = test system: HOP-92
[5] = test system: HT-29
[6] = test system: MDA-N
[7] = test system: NCI/ADR-RES
[8] = test system: OVCAR-4
[9] = test system: RPMI-8226
[10] = test system: SF-295
[11] = test system: SN12C
[12] = test system: SNB-19
[13] = test system: TK-10
[14] = test system: UACC-257
[15] = test system: UACC-62
[16] = test system: Malme-3M
[17] = test system: NCI-H23
[18] = test system: UO-31
[19] = test system: MDA-MB-231

| SMILES | GI50 [1] | GI50 [2] | GI50 [3] | GI50 [4] | GI50 [5] | GI50 [6] | GI50 [7] | GI50 [8] | GI50 [9] | GI50 [10] | GI50 [11] | GI50 [12] | GI50 [13] | GI50 [14] | GI50 [15] | GI50 [16] | GI50 [17] | GI50 [18] | GI50 [19] |
| --- | --- | --- | --- | --- | --- | --- | --- | --- | --- | --- | --- | --- | --- | --- | --- | --- | --- | --- | --- |
| O=c1n(CCCN2CCN(c3cccc(Cl)c3)CC2)nc2n1-c1ccc3ccccc3c1SC2 | > 100 µM (inactive) | > 100 µM (inactive) | > 100 µM (inactive) | > 100 µM (inactive) | 9.04 µM (inactive) | > 100 µM (inactive) | > 100 µM (inactive) | > 100 µM (inactive) | 58.9 µM (inactive) | > 100 µM (inactive) | > 100 µM (inactive) | > 100 µM (inactive) | > 100 µM (inactive) | > 100 µM (inactive) | > 100 µM (inactive) |  |  |  |  |
| N#CC(C(=O)C(=O)Nc1ccc(Cl)c(Cl)c1)c1ccc(Cl)cc1 (stereo unspecified) | > 100 µM (inactive) | 97.3 µM (inactive) | 47.2 µM (inactive) | 36.4 µM (inactive) | 69.2 µM (inactive) |  |  |  | 35.2 µM (inactive) | 87.9 µM (inactive) | 91 µM (inactive) | 65.5 µM (inactive) | > 100 µM (inactive) | > 100 µM (inactive) | 30.5 µM (inactive) | 97.3 µM (inactive) | > 100 µM (inactive) | 47.1 µM (inactive) |  |
| CS(=O)(=O)CCC(N)P(=O)(O)O (stereo unspecified) |  | > 100 µM (inactive) | > 100 µM (inactive) | > 100 µM (inactive) | > 100 µM (inactive) | > 100 µM (inactive) | > 100 µM (inactive) | > 100 µM (inactive) | > 100 µM (inactive) | > 100 µM (inactive) | > 100 µM (inactive) | > 100 µM (inactive) | > 100 µM (inactive) | > 100 µM (inactive) | > 100 µM (inactive) | > 100 µM (inactive) | > 100 µM (inactive) | > 100 µM (inactive) |  |
| Cc1[nH]c2ccccc2c1CC/C(=N\Nc1ccccc1)c1ccccc1 | > 100 µM (inactive) | > 100 µM (inactive) | > 100 µM (inactive) |  | > 100 µM (inactive) |  |  | > 100 µM (inactive) | > 100 µM (inactive) | 94.6 µM (inactive) |  |  | > 100 µM (inactive) | > 100 µM (inactive) | > 100 µM (inactive) | > 100 µM (inactive) | > 100 µM (inactive) | > 100 µM (inactive) |  |
| Cc1ccc(NC(=O)SCCC(=O)O)cc1NC(=O)SCCC(=O)O | > 100 µM (inactive) | > 100 µM (inactive) | > 100 µM (inactive) |  | > 100 µM (inactive) |  |  | > 100 µM (inactive) | > 100 µM (inactive) | > 100 µM (inactive) | > 100 µM (inactive) | > 100 µM (inactive) | > 100 µM (inactive) | > 100 µM (inactive) |  |  | > 100 µM (inactive) | > 100 µM (inactive) |  |
| CC(C)(C)OC(=O)N(CCCCNCc1ccc2ccccc2c1)CCCNCc1ccc2ccccc2c1 | 1.91 µM (inactive) | 1.81 µM (inactive) | 0.204 µM (active) | 1.64 µM (inactive) | 0.893 µM (active) |  | 1.57 µM (inactive) | 1.67 µM (inactive) | 1.08 µM (active) | 1.9 µM (inactive) | 1.75 µM (inactive) | 1.76 µM (inactive) | 1.66 µM (inactive) | 1.91 µM (inactive) | 1.66 µM (inactive) |  | 1.85 µM (inactive) | 1.73 µM (inactive) | 1.02 µM (active) |
| COC(=O)c1ccc(C)cc1/C=C1\Cc2ccc(C)cc2C1=O | 19.1 µM (inactive) | 26.9 µM (inactive) | 4.78 µM (inactive) | 15.5 µM (inactive) | 4.73 µM (inactive) |  | 29.4 µM (inactive) | 14.4 µM (inactive) | 11.8 µM (inactive) | 15.3 µM (inactive) | 16.7 µM (inactive) | 17.2 µM (inactive) | 21.1 µM (inactive) | 22.6 µM (inactive) | 11.4 µM (inactive) | 10.2 µM (inactive) | 23.9 µM (inactive) | 11 µM (inactive) |  |
| COc1ccc(/C=C(\C#N)c2nc(N)nc(N3N=C(C)CC3(C)C)n2)c(O)c1 | 28.4 µM (inactive) | 18.8 µM (inactive) | 16.5 µM (inactive) | 31.5 µM (inactive) | 19.2 µM (inactive) |  | 31 µM (inactive) | 15.8 µM (inactive) | 41.3 µM (inactive) | 19.1 µM (inactive) | 26.8 µM (inactive) | 35.1 µM (inactive) | 30.2 µM (inactive) | 24 µM (inactive) | 17.4 µM (inactive) | 14.4 µM (inactive) | 18.8 µM (inactive) | 17.3 µM (inactive) | 17.8 µM (inactive) |
| COc1cc2c(cc1OC)C(Cc1ccccc1CCCl)=NCC2 | > 100 µM (inactive) | 57.9 µM (inactive) | 19.8 µM (inactive) | 30.3 µM (inactive) | 6.85 µM (inactive) |  | 25.8 µM (inactive) | 45.6 µM (inactive) | 24.2 µM (inactive) | 33.7 µM (inactive) | > 100 µM (inactive) | 55.3 µM (inactive) | > 100 µM (inactive) | 50.8 µM (inactive) | 34.2 µM (inactive) |  | 22 µM (inactive) | 31.3 µM (inactive) | > 100 µM (inactive) |
| Cc1oc2nc(N(C)C)nc(Cl)c2c1C | 29.9 µM (inactive) | > 100 µM (inactive) | > 100 µM (inactive) | 25.2 µM (inactive) | > 100 µM (inactive) |  | > 100 µM (inactive) | 32.1 µM (inactive) | > 100 µM (inactive) | > 100 µM (inactive) | > 100 µM (inactive) | > 100 µM (inactive) | > 100 µM (inactive) | > 100 µM (inactive) | > 100 µM (inactive) |  | > 100 µM (inactive) | 26.8 µM (inactive) | > 100 µM (inactive) |
| Cc1ccc(Oc2ccccc2N)cc1 | > 100 µM (inactive) | 36.9 µM (inactive) | 10.4 µM (inactive) | 37.8 µM (inactive) | 37.2 µM (inactive) |  |  | 50.9 µM (inactive) | 33.7 µM (inactive) | 37.6 µM (inactive) | 31.7 µM (inactive) | 78.5 µM (inactive) | 88.1 µM (inactive) | 52.5 µM (inactive) | 60.1 µM (inactive) | > 100 µM (inactive) | 39.9 µM (inactive) | 12.4 µM (inactive) |  |
| C/N=C(\SC)N(C)c1nc(=[N+](C)C)ss1.[O-][Cl+3]([O-])([O-])[O-] | 4.61 µM (inactive) | > 100 µM (inactive) | 7.38 µM (inactive) | > 100 µM (inactive) | 4.22 µM (inactive) |  |  |  |  | > 100 µM (inactive) | > 100 µM (inactive) | > 100 µM (inactive) | > 100 µM (inactive) | > 100 µM (inactive) | 4.9 µM (inactive) |  | > 100 µM (inactive) | 42.2 µM (inactive) |  |
| O=C(O)CCN(CCC(=O)O)c1ccc(/C=C2\SC(=S)NC2=O)cc1 | > 100 µM (inactive) | > 100 µM (inactive) | > 100 µM (inactive) | > 100 µM (inactive) | > 100 µM (inactive) |  | > 100 µM (inactive) | > 100 µM (inactive) | > 100 µM (inactive) | > 100 µM (inactive) | > 100 µM (inactive) | > 100 µM (inactive) | > 100 µM (inactive) | > 100 µM (inactive) | > 100 µM (inactive) | 1.48 µM (inactive) | > 100 µM (inactive) | > 100 µM (inactive) | > 100 µM (inactive) |
